Where a name gives a salt, the structure may show the parent alone.
Legend:
[1] = system: venous ulcer; assay: Open wound healing in a patient with incurable venous ulcer; format: in vivo, human; conditions: 1% BAC-3 ointment, twice daily during 41 days
Experimental: The BAC-3 rhamnolipid was tested in the case of open wound healing, in a patient suffering around ten years from incurable venous ulcer. On the left leg, the patient had very thick layers of collagen with fibrotic lesions. […] Moreover, after treatment was finished, not only the collagen, but also the fibrotic lesions had disappeared as well. One year after the treatment, the treated skin lesions on the left leg appear normal, and all skin collagen and fibrotic layers had disappeared.

[2] = system: burn wounds; assay: Topical treatment of burn wounds, 7% of body surface; conditions: for mean value of collagen tissue: sacrificed on 45th day, histopathology; for mean value of collagen concentration relative to group 1 D (placebo): placebo taken as 1100% (printed)
[3] = system: incision wounds; assay: Tensile strength of incision wounds; format: in vivo, Sprague-Dawley rats; conditions: 0.1% BAC-3, 21 days after wounding, p<0.05 by ANOVA; FIG. 3
Description: Incision wounds. Dorsal midline incisions were made in anesthetized rats. The animals were clipped free of their fur and prepared with alcohol. A 5.0 cm, midline, full-thickness incision was made with a scalpel through the panniclus carnosus.
The wounds were immediately closed with skin sutures spaced at a distance of 0.5 cm. Seven days later, all sutures were removed. On days 14 and 21 after incision, three animals from each group were killed using an overdose of sodium pentobarbital. Using a plexiglass template, a minimum of two samples of full-thickness skin were harvested perpendicular to the long axis of the wound for tensile strength determination. The skin samples were 9.0 mm wide at the wound by 2.0 cm long.
Tensile Strength Determination. The standard wound samples for each treatment cohort were examined for tensile strength by pulling the individual wounds apart in an Instron 4201 (Universal Testing instruments, Instron Engineering Co., Canton, Mass.) material tester. Special clamps were used to securely grip the tissue to avoid slippage as the wounds were pulled at a standard cross speed of 25 mm/min. The tensile strength of healthy skin was measured in killed animals from each group.
Effect of BAC-3 on Tensile Strength of Incision Wounds (FIG. 3) with and without chlorhexidine hydrochloride. The tensile strength of incision wounds was measured 21 days after wounding. […]

[4] = system: burn wounds; assay: Topical treatment of burn wounds, 15% of body surface; format: in vivo, Sprague-Dawley rats; conditions: 1% BAC-3 in ointment without chlorhexidine, started on 50th day after burning on open wounds; tapering regimen
Experimental: Method of burning. […] (Producer: Veterinary Laboratory Inc. Lenexa, Kans.).
Four rats were burned according to the described procedure using the wider opening in the Walker device (10×5 cm). All rats were treated from the beginning by placebo. After 50 days all burned rats had open wounds in average 2.3 cm at the neck, 1.3 cm in the middle and 1.8 cm at the tail.
On the 50th day after burning, animals were treated with 1% BAC-3 in ointment without chlorhexidine hydrochloride using the following procedure:
For the first 3 days, burn wounds were treated twice daily. After developing granulation tissue and the first sign of epithelization, animals were treated 3 days with 1% BAC-3 in ointment once daily. For the next four days, animals were treated every second day. After that wounds were treated every third day with 1% BAC-3 in ointment until the entire wound was re-epithelized. Re-epithelization was first completed at the middle of the wounds, then at the tails and finally at the necks. Whole epithelization in all animals was finished in 30 days.

[5] = system: mice; conditions: cited from earlier work; for PCP-induced enhancement of immobility in the forced swimming test: doses that failed to produce antidepressant effects in control animals
[6] = system: WKY rats; conditions: cited from earlier work
[7] = system: WKY rats; conditions: cited from earlier work; remark: listed apart in the source

CCCCCCCC(CC(=O)O)OC(=O)CC(CCCCCCC)OC1OC(C)C(O)C(O)C1OC1OC(C)C(O)C(O)C1O [BAC-3, (α-L-rhamnopyranosyl-(1,2)-α-L-rhamnopyranosyl)-3-hyroxydecanoyl-3-hydroxydecanoic acid]
collagen and fibrotic lesions after treatment was finished [1]: disappeared
treated skin lesions one year after the treatment ([1]; one year after): appear normal
patient's condition ([1]; venous ulcer, left leg): significantly improved
rate of burn wound closure (decrease in wound size) vs vehicle alone ([2]; 0.1% BAC-3 in eucerin, without chlorhexidine, twice daily, days 14-45, FIG. 1): significantly faster
extent of burn wound closure (wound size) vs vehicle alone ([2]; 0.1% BAC-3 in eucerin, without chlorhexidine, days 14, 21 and 28, p<0.05 by ANOVA, FIG. 2): significantly smaller
body weights among the treatment groups ([2]; 1% and 0.1% BAC-3 in eucerin vs vehicle, twice daily, 45 days): no significant differences
crust formation ([2]; between all groups (1% and 0.1% BAC-3, with or without chlorhexidine, placebo), 45 days): no significant differences
granulation tissue ([2]; group 1-A: 1% BAC-3 in ointment twice daily): prominently developed
hair growth of dead skin during the healing period ([2]; group 1-A: 1% BAC-3 in ointment, compared to the other groups): very prominent
re-epithelization in the middle part of the burn wounds ([2]; group 1-B: 0.1% BAC-3 in ointment twice daily): faster
mean value of collagen tissue ([2]; group 1 A: 1% BAC-3, without chlorhexidine): 8.48 mm^2
mean value of collagen concentration relative to group 1 D (placebo) ([2]; group 1 A: 1% BAC-3): 131.26
mean value of collagen tissue ([2]; group 1 B: 0.1% BAC-3, without chlorhexidine): 5.15 mm^2
mean value of collagen concentration relative to group 1 D (placebo) ([2]; group 1 B: 0.1% BAC-3): 79.72
granulation tissue ([2]; group 2-A: 1% BAC-3 in ointment plus 1% chlorhexidine hydrochloride twice daily): prominently developed
re-epithelization in the middle part of the burn wounds ([2]; group 2-B: 0.1% BAC-3 in ointment plus 1% chlorhexidine hydrochloride twice daily): faster
tensile strength of incision wounds vs corresponding vehicle [3]: significantly lower
time to whole epithelization in all animals [4]: 30 days

c1ccc(C2(N3CCCCC3)CCCCC2)cc1 [PCP, phencyclidine]
forced swimming-induced immobility ([5]; mice treated repeatedly with PCP (10 mg/kg per day S.C.), same stress again): enhanced
persistence of the enhancing effect on immobility after withdrawal of the drug ([5]; mice, PCP 10 mg/kg per day S.C.): at least 21 days

[H]/N=C(\N/C(=N/[H])NCCCCCCNC(=N)NC(=N)Nc1ccc(Cl)cc1)Nc1ccc(Cl)cc1 [chlorhexidine hydrochloride, reference compound]
wound irritation ([2]; 1% chlorhexidine hydrochloride in combination with BAC-3, rats scratched lower and upper part of burn wounds): irritated wounds

CNCCCN1c2ccccc2CCc2ccccc21 [desipramine]
incidence of stress ulcer [6]: reduces the incidence of stress ulcer
immobility in the forced swim test [7]: reduces immobility

Cc1nc2n(c(=O)c1CCN1CCC(c3noc4cc(F)ccc34)CC1)CCCC2 [risperidone]
PCP-induced enhancement of immobility in the forced swimming test ([5]; mice): attenuated

Cc1nc2sccn2c(=O)c1CCN1CCC(=C(c2ccc(F)cc2)c2ccc(F)cc2)CC1 [ritanserin]
PCP-induced enhancement of immobility in the forced swimming test ([5]; mice): attenuated

Reference: patent US7262171B1, “Use of rhamnolipids in wound healing, treating burn shock, atherosclerosis, organ transplants, depression, schizophrenia and cosmetics” (Paradigm Biomedical, Inc., priority 1998, dated 2007)
